# In patent US9078446B2, “Use of N-(tetrazol-4-yl)- or N-(triazol-3-yl)arylcarboxamides or their salts for controlling unwanted plants in areas of transgenic crop plants being tolerant to HPPD inhibitor herbicides” (BAYER INTELLECTUAL PROPERTY GMBH, priority 2011, dated 2015):
# Tests used:
# [1] = system: transgenic tobacco plants expressing tolerant HPPD enzymes; assay: Tolerance of tobacco plants expressing tolerant HPPD enzymes (all transgenes); format: in vivo
# Outline: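 Tobacco transformed via pBin19 with the HPPD gene under CaMV35S, fused to an N-terminal chloroplast transit peptide. T1 plants, potted at 3 weeks and grown 2 more weeks, sprayed with N-(tetrazol-4-yl)/N-(triazol-3-yl)arylcarboxamides (g AI/ha) on 8–10 plants from 1–3 events per transgene. Damage scored 0 (none) to 3 (very strong), versus non-transformed plants.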
# [2] = system: soybean plants expressing Pseudomonas fluorescens G336W mutant, FMP 27 and FMP 37; assay: Tolerance to HPPD inhibitors of soybean plants expressing tolerant HPPD enzymes; format: in vivo; details: T1 soybean plants; one week after application
# Outline: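 T1 soybean lines carry chloroplast-targeted HPPD genes from Blepharisma japonicum or Kordia algicida under the CaMV35S promoter, with T0 events selected for tembotrione tolerance. T1 seedlings are raised singly in pots under standard conditions. Plants are sprayed two weeks later with N-(tetrazol-4-yl)- or N-(triazol-3-yl)arylcarboxamides.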
# [3] = target: T1, Arabidopsis thaliana HPPD (AtHPPD) (Arabidopsis thaliana, UniProt P93836); assay: Determination of HPPD activity in presence of HPPD inhibitor (percentage of inhibition); format: biochemical; details: 5.0×10^−6M of compound, compared to activity in absence of compound
# T1 construct: His6 (N); made in house; host or cells: E. coli K-12 BL21
# T1 sequence (P93836 1-445): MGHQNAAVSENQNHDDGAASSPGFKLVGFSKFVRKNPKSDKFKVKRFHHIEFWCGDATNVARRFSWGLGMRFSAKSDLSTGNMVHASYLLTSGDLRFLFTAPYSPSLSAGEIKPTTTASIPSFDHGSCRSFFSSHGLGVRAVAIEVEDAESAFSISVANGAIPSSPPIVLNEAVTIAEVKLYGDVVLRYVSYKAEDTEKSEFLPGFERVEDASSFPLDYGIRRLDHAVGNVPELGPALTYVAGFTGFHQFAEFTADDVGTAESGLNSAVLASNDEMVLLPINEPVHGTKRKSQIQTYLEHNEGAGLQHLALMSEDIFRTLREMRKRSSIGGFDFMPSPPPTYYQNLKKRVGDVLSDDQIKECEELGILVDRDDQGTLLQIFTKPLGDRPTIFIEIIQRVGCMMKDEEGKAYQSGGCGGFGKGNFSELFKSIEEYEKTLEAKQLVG
# Protocol: (§1) The HPPD activity was checked by the standard spectrophotmetric assay (method extensively described in WO 2009/144079)
# (§2) Level of tolerance of HPPD proteins obtained from different organisms was determined according to the procedure as described in PCT/EP2010/070575.
# (§3) Table E1: Determination of Percentage of Inhibition in Presence of 5.0×10^−6M of Compound “4-137” Compared to the Activity Measured in Absence of Compound No. “4-137” With HPPD Originated from Arabidopsis thaliana (AtHPPD), Mutated Pseudomonas fluorescens PfHPPD-G336W, Avena sativa (AvHPPD), FMP27 (Derived from Kordia algicida) and FMP37 (Derived from Blepharisma japonicum).
# [4] = system: mutated Pseudomonas fluorescens PfHPPD-G336W; assay: as above; format: biochemical
# Protocol: as §1, §2, §3
# [5] = system: Avena sativa HPPD (AvHPPD); assay: as above; format: biochemical
# Protocol: as §1, §2, §3
# [6] = system: FMP27 (HPPD derived from Kordia algicida); assay: as above; format: biochemical
# Protocol: as §1, §2, §3
smiles,measurement,setting,value
Cc1c(C(=O)Nc2nnnn2C)ccc(C(F)(F)F)c1S(C)(=O)=O [Compound 4-137],tolerance of the transgenic tobacco plants (symptoms due to application of the herbicide),"[1]; T1 plants sprayed, evaluated one week after application",good tolerance
same,sensitivity of transgenic tobacco plants compared to wild type (wt) plants,"[1]; all tested independent lines, agronomically relevant dose",less sensitive
same,tolerance of transgenic plants compared to the wild-type soybean plants,[2],superior tolerance
same,Inhibition %,[3],100%
same,Inhibition %,"[4]; 5.0×10^−6M of compound, compared to activity in absence of compound, PfHPPD-G336W",92%
same,tolerance/sensitivity of the HPPD to the inhibitor compared to Arabidopsis thaliana HPPD,"[4]; PfHPPD-G336W versus AtHPPD, identical experimental conditions",less sensitive
same,Inhibition %,"[5]; 5.0×10^−6M of compound, compared to activity in absence of compound, AvHPPD",93%
same,tolerance/sensitivity of the HPPD to the inhibitor compared to Arabidopsis thaliana HPPD,"[5]; AvHPPD versus AtHPPD, identical experimental conditions",less sensitive
same,Inhibition %,"[6]; 5.0×10^−6M of compound, compared to activity in absence of compound, FMP27",90%
same,tolerance/sensitivity of the HPPD to the inhibitor compared to Arabidopsis thaliana HPPD,"[6]; FMP27 versus AtHPPD, identical experimental conditions",less sensitive
